Columns and labels:
human PPAR delta = biological target: T1, human PPAR delta (Homo sapiens, UniProt Q03181); test: Transient transfection (transactivation) assay in CV-1 cells, hPPAR delta; format: cell-based; details: PPAR transactivation activity; GAL4-PPAR LBD chimera in CV-1 cells; concentration achieving 50% of maximum activity; read-out: human δEC50
T1 construct: expressed in transfected cells; host or cells: CV-1 cells
T1 sequence (Q03181 211-439 limits assumed): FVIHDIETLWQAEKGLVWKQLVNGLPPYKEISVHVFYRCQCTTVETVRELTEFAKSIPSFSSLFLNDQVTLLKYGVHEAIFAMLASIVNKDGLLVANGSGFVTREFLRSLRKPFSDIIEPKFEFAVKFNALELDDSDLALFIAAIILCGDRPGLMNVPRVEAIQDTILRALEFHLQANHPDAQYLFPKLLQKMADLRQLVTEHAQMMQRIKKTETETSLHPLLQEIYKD
Source text: (§1) Most preferably, the compounds of formula (I) are selective hPPARalpha agonists. As used herein, a “selective hPPAR alpha agonist” is a hPPARalpha agonist whose EC50 for PPARalpha is at least 10 fold lower than its EC50 for PPAR gamma and PPAR delta. […] Most preferred compounds are greater than 100-fold selective hPPARalpha agonists (see Table 1).
(§2) Compounds were screened for functional potency in transient transfection assays in CV-1 cells for their ability to activate the PPAR subtypes (transactivation assay). A previously established chimeric receptor system was utilized to allow comparison of the relative transcriptional activity of the receptor subtypes on the same target gene and to prevent endogenous receptor activation from complicating the interpretation of results. See, for example, Lehmann, J. M.; Moore, L. B.; Smith-Oliver, T. A.; Wilkison, W. O.; Willson, T. M.; Kliewer, S. A., An antidiabetic thiazolidinedione is a high affinity ligand for peroxisome proliferator-activated receptor γ (PPARγ), J. Biol. Chem., 1995, 270, 12953–6. The ligand binding domains for murine and human PPAR alpha, PPAR gamma, and PPAR delta were each fused to the yeast transcription factor GAL4 DNA binding domain. […]

human PPAR gamma = biological target: T2, human PPAR gamma (Homo sapiens, UniProt P37231); test: Transient transfection (transactivation) assay in CV-1 cells, hPPAR gamma; format: cell-based; details: PPAR transactivation activity; GAL4-PPAR LBD chimera in CV-1 cells; concentration achieving 50% of maximum activity; read-out: human γEC50
T2 construct: expressed in transfected cells; host or cells: CV-1 cells
T2 sequence (P37231 238-503 limits assumed): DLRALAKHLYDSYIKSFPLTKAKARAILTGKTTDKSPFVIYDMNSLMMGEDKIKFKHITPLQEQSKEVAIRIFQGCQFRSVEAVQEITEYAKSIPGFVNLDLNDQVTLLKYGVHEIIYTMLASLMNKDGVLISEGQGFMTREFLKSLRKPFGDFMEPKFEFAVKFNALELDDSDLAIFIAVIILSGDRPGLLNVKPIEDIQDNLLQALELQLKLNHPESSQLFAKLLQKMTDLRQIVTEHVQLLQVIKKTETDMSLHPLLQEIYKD
Source text: as §1, §2

human PPAR alpha = biological target: T3, human PPAR alpha (Homo sapiens, UniProt Q07869); test: Transient transfection (transactivation) assay in CV-1 cells, hPPAR alpha; format: cell-based; details: PPAR transactivation activity; GAL4-PPAR LBD chimera in CV-1 cells; concentration achieving 50% of maximum activity; read-out: human αEC50
T3 construct: expressed in transfected cells; host or cells: CV-1 cells
T3 sequence (Q07869 239-466 limits assumed): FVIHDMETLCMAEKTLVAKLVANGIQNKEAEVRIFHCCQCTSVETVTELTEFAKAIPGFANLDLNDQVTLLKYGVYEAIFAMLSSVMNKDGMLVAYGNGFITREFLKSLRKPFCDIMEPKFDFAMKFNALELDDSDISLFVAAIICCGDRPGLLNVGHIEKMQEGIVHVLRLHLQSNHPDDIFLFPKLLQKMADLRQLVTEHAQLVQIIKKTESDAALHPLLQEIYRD
Source text: as §1, §2

| SMILES | EC50 (human PPAR delta) | EC50 (human PPAR gamma) | EC50 (human PPAR alpha) | melting point |
| --- | --- | --- | --- | --- |
| Cc1nc(-c2ccc(C(F)(F)F)cc2)sc1COc1cccc(COC(C)(C)C(=O)O)c1 [Example 2, 2-methyl-2-{(3-[4-methyl-2-(4-trifluoromethylphenyl)thiazol-5-yl]methoxy)benzyloxy}propionic acid] | 3.2 µM | 2.6 µM | 0.002 µM |  |
| Cc1nc(-c2ccc(C(F)(F)F)cc2)sc1COc1cccc(CSCC(=O)O)c1 [Example 4, 2-{[(3-[4-methyl-2-(4-trifluoromethylphenyl)thiazol-5-yl]methoxy)benzyl]thio}acetic acid] | 1.6 µM | 3.6 µM | 0.01 µM |  |
| Cc1nc(-c2ccc(C(F)(F)F)cc2)sc1COc1cccc(COCC(=O)O)c1 [Example 6, 2-{(3-[4-methyl-2-(4-trifluoromethylphenyl)thiazol-5-yl]methoxy)benzyloxy}acetic acid] |  |  |  | 121 °C |
| Cc1nc(-c2ccc(C(F)(F)F)cc2)sc1C(C)(C)Oc1cccc(COC(C)(C)C(=O)O)c1 [Example 10, 2-methyl-2-[3-{1-methyl-1-[4-methyl-2-(4-trifluoromethylphenyl)thiazol-5-yl]ethoxy}benzyloxy]propionic acid] |  |  |  | 136 °C |
